According to US20130085304A1, “PROCESSES FOR PREPARATION OF POLYMORPHIC FORMS OF LACOSAMIDE” (priority 2009, published 2013):

Experiments:
[1] = Drying of Example 3 wet mass at rising temperatures, polymorph checked by XRD; assay type: physicochemical; conditions: for Product characterized (based on XRD thereof) as: 6 hours
Protocol: Lacosamide (20 g) was added to ethyl acetate (120 ml) at ambient temperature and heated at 75° C. to 80° C. This was cooled to ambient temperature in 1 hour and then filtered. […] The wet mass was dried at the following temperatures each for the specified time and analyzed.

[2] = Effect of time on stability of polymorphic form; assay type: physicochemical
Protocol: Polymorphic Form A of lacosamide was kept at 0° C. to 5° C. for 3 months.
Polymorphic Form B of lacosamide was kept at 0° C. to 5° C. for 7 months.

[3] = Solubility of polymorphic Form A and Form B in de-ionized water
Protocol: Lacosamide polymorphic Forms A and B were tested for solubility studies by dissolving the Form A or Form B in de-ionized water.

Structure (SMILES)	Product characterized (based on XRD thereof) as ([1]; Example 3 wet mass dried at 35-40 °C)	Product characterized (based on XRD thereof) as ([1]; Example 3 wet mass dried at 40-45 °C)	Product characterized (based on XRD thereof) as ([1]; Example 3 wet mass dried at 45-50 °C)	Product characterized (based on XRD thereof) as ([1]; Example 3 wet mass dried at 50-55 °C)	Product characterized (based on XRD thereof) as ([1]; Example 3 wet mass dried at 55-60 °C)	Product characterized (based on XRD thereof) as ([1]; Example 3 wet mass dried at 60-65 °C)	Change in polymorph pattern on heating ([1]; heated for 36 hours in the temperature range of 35° C. to 65° C.)	Polymorphic form on reanalysis after storage ([2]; kept at 0° C. to 5° C. for 3 months)	Solubility status in de-ionized water (1 in 45 parts) [3]	Polymorphic form on reanalysis after storage ([2]; kept at 0° C. to 5° C. for 7 months)
COC[C@@H](NC(C)=O)C(=O)NCc1ccccc1 [Form A, (R)-2-acetamido-N-benzyl-3-methoxypropionamide]	Crystalline Form A	Crystalline Form A	Crystalline Form A	Crystalline Form A	Crystalline Form A	Crystalline Form A	no change in polymorph pattern	characterized as Form A	Sparingly soluble	
COC[C@@H](NC(C)=O)C(=O)NCc1ccccc1 [Form B, (R)-2-acetamido-N-benzyl-3-methoxypropionamide]										characterized as Form B
